Read-outs that look alike come from different tables or passages of the source. Each block holds one compound with its values, some of them ahead of it.
Assays:
human GIPR [1] = target: T1, human GIPR (Homo sapiens, UniProt P48546); details: literature, in words; cited from earlier work
T1 construct: expressed in transfected cells; host or cells: HEK293 (CRE-HEK293, HEK293-GIPR-CRE)
T1 sequence (P48546 22-466): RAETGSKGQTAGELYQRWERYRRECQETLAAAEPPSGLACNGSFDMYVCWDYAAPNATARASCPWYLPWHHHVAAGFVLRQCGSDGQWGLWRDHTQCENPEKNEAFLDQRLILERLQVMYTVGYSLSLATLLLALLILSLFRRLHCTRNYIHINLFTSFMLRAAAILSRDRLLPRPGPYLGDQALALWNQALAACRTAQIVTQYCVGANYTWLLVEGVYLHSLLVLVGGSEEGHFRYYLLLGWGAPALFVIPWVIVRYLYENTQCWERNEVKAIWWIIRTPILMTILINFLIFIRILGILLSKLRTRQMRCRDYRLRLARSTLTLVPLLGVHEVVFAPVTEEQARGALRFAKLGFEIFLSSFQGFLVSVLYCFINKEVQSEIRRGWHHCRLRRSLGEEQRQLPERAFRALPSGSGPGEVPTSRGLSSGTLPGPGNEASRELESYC

human GLP-1R [2] = target: T2, human GLP-1R (Homo sapiens, UniProt P43220); details: literature, in words; cited from earlier work
[3] = In vivo oral glucose tolerance test (OGTT) 12 h after a single S.C. dose; set-up: species or system mouse; details: 10 nmol/kg S.C.; 12 h before glucose
Procedure: Mice were fasted overnight prior to the oral glucose tolerance test (OGTT), and then dosed with peptide. After 12 h, 1 g of glucose solution per kg body weight was administered orally, and mouse tail blood glucose levels were measured before (0 min) and after glucose challenge for 90 minutes (with measurements at 15, 30, 60 and 90 minutes) (FIG. 16). The data were compared using the unpaired Student's t test. Where appropriate, data were compared using repeated measures or one-way analysis of variance, followed by the Student-Newman-Keuls post hoc test. Calculations for […] (mg/dL*min) were also analyzed and graphed in FIG. 16. […]. […].

cynomolgous monkey GIPR = assay: In vitro potency, cynomolgous monkey GIPR activation (receptor-mediated cAMP synthesis); assay type: cell-based; details: Table 12; read-out: In Vitro Potency GIPR EC50, Cyno
dog GIPR = target: T3, dog GIPR (Canis lupus familiaris, UniProt A0A8I3MPG1); assay: In vitro potency, dog GIPR activation (receptor-mediated cAMP synthesis); assay type: cell-based
T3 sequence (A0A8I3MPG1 24-449): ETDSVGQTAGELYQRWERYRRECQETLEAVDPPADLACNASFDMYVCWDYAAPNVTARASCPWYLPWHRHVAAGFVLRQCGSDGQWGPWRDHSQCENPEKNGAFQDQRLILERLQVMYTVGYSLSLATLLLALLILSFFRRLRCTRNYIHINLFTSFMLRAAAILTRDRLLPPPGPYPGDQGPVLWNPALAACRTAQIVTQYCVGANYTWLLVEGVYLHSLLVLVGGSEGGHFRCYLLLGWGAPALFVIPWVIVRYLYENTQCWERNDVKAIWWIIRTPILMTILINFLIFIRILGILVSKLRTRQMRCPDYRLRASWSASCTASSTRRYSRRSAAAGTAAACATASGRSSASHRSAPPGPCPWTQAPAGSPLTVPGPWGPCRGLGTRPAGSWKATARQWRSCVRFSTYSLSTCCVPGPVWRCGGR
Procedure: GLP-1R-CRE or HEK293-GIPR-CRE cells were seeded in 384-well plates at a density of 5000 cells per well and cultured for 18 h in DMEM with 10% FBS at 37° C. and 5% CO2. Cells were treated with peptides in a dose dependent manner for 24 h, and receptor activation was reported by luminescence intensities, using One-Glo (Promega, WI) luciferase reagent following manufacturer's instruction. The EC50 of each peptide was determined using GraphPad Prism 6 software (GraphPad, San Diego, CA). Results are depicted in FIGS. 6A-6B, FIGS. 7A-7B, FIGS. 8A-8B, FIGS. 9A-9B, and Tables 7-12. Measurements of peptide conjugate potency were expressed as half maximal effective concentration (EC50) values.

in vitro [4] = assay type: in vitro ADME, cyno monkey; details: monkey, plasma
Procedure: (§1) To investigate the stability of the conjugates in mouse, cyno monkey, dog, and human plasma, conjugate mCMD307 was incubated in plasma for 24 h (Table 13). At certain time intervals a sample of plasma was taken and plasma proteins precipitated. Samples were analyzed using LC-MS.

in vitro [5] = assay type: in vitro ADME; details: plasma
Procedure: as §1

human GLP-1R [6] = target: T2, human GLP-1R; assay: In vitro receptor activation reporter assay (CRE-Luc, HEK293-GLP-1R-CRE cells; receptor-mediated cAMP synthesis); assay type: cell-based; set-up: expressed in transfected cells; host or cells: HEK293 (CRE-HEK293, HEK293-GLP-1R-CRE); details: read-out: EC50 GLP1R
[7] = Plasma stability, 24 h incubation in mouse plasma (LC-MS); assay type: in vitro ADME
Procedure: as §1

[8] = Acute oral glucose tolerance test (OGTT) in wild-type mice, 2 h and 96 h post injection; assay type: in vivo, mouse; details: 96 h after administration; 10 nmol/kg s.c.
[9] = High-fat-diet-induced obesity (DIO) mouse model, chronic administration; assay type: in vivo; details: DIO mice
human GIPR [10] = target: T1, human GIPR; assay: In vitro receptor activation reporter assay (CRE-Luc, HEK293-GIPR-CRE cells; receptor-mediated cAMP synthesis); assay type: cell-based
[11] = assay type: in vivo, mouse
Procedure: […]. Peptide dissolved in PBS (pH 8.2) was administered via i.v. or s.c. route into CD1 mice ([…]). Blood samples were collected at the indicated time points and analyzed by in vitro GLP-1R activity assay. The assay was performed in triplicate. Pharmacokinetic analyses were determined by noncompartmental analysis with WinNonLin.
[…]. It is also noteworthy that although our focus for half-life extension was on the serum-binding ability of the stapled peptide, there may be a combination of effects, for example self-assembly and depoting at the injection site, that led to the delayed onset of Cmax and the extended half-life.
CHOK1 cells stably overexpressed human GLP-1R or GIPR (20 μL of 5000 cells per well) were seeded in a white solid 384 well plate covered with metal lid and incubated overnight. On day 2, the culture medium was replaced by fresh medium containing no FBS (for 0% FBS group). Cells were treated with 5 μL peptide in 12-point dose response, in culture medium with 0.5 mM IBMX in triplicate for 30 min at 37° C., 5% CO2. cAMP dynamic 2 kit from Cisbio was used to detect cAMP level. Briefly, 25 μL of cAMP detection reagent (1:1:38 of cAMP-d2, Cryptate conjugate, lysis buffer) per well was added and incubated at room temperature for 1 h. For cell negative control wells, cAMP detection reagent without d2 was added. […] Animals Animal care and experimental procedures were approved by the Institutional Animal Care and Use Committee (IACUC) of Calibr at the Scripps Research Institute, strictly following the NIH guidelines for humane treatment of animals. Pharmacokinetics of peptides in mice Female CD-1 mice (n=4 per group) from Charles River Laboratory were fasted overnight and administered 100 μL of each peptide in phosphate buffered saline by intravenous (i.v.) or subcutaneous (s.c.) route. Food was provided to mice after blood collection at 3 h time point. Blood was collected into heparin tubes and centrifuged at 3,000×g for 15 min. The resulting plasma were then stored at −80° C. for peptide concentration determination. The concentrations of peptides in plasma at each time point were determined by in vitro cell based activity assay. Briefly, HEK293-GLP-1R-CRE cells were treated with plasma samples at different time points (5-point dose response, starting from 1:10 to 1:100 dilution of each plasma sample) and incubated for 16 h in DMEM with 10% FBS at 37° C. with 5% CO2, and the firefly luciferase activity was then measured. Simultaneously, the same peptides were used to obtain standard curves and parameters for Bottom, Top, EC50, and Hill Slope. Relative luciferase unit (RLU) for each plasma sample was used to calculate the peptide concentrations in plasma (nmol/L), using parameters derived from the standard curve: (RLU=Bottom+(Top−Bottom)/(1+10^(Log EC50−Conc.)×Hill Slope)) Peptide concentrations in plasma were obtained and plotted against time points to obtain in vivo half-life of each peptide, using WinNonLin Phoenix software (Pharsight Corp, St. Louis, MO). Oral glucose tolerance test (OGTT) Female Charles River CD-1 mice were fasted overnight and then administrated 150 μL of each peptide in PBS (pH=8.2) by i.v. or s.c. route. […]. Body weight and food intake were monitored daily throughout the study. At the end of the experiment, mice were sacrificed, and visceral fat mass was weighed. Collected plasma was used for cholesterol level determination according to the manufacturer's guide (cholesterol assay kit, Abcam, Cambridge, England) and triglyceride level using a triglyceride colorimetric assay kit (Cayman chemical, Ann Arbor, Michigan). Oil red staining Frozen tissue sections of liver were cut at 10 μm and air dried onto the slides. After fixation in 10% formalin for 5 min, the slides were briefly washed with running tap water for 10 min, followed by rinsing with 60% isopropanol. Subsequently, oil red 0 working solution (0.3% oil red 0) was used to stain lipid for 15 min. […]

T2 sequence (P43220 24-463): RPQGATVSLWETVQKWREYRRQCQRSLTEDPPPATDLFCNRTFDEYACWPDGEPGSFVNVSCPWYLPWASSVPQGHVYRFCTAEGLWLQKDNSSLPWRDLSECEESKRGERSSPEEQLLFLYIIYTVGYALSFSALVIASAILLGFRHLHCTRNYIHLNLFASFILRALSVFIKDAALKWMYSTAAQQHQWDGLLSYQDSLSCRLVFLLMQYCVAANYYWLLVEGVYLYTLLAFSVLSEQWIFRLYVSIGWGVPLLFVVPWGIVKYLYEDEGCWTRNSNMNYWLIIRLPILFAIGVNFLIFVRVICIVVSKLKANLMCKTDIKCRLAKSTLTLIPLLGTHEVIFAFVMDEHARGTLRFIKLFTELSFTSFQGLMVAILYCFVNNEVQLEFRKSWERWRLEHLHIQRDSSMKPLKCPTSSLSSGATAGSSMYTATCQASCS

Compound: Tirzepatide
binding affinity to human GIPR versus hGIP (human GIPR [1]): comparable affinity than that of hGIP
GLP-1 receptor binding versus native hGLP-1 (human GLP-1R [2]): approximately five times lower GLP-1 receptor binding than native hGLP-1
effects on glucose tolerance [3]: indistinguishable effects on glucose tolerance
EC50 (cynomolgous monkey GIPR): 0.08 nM

Compound: CC[C@H](C)[C@H](NC(=O)[C@H](CO)NC(=O)[C@H](Cc1ccc(O)cc1)NC(=O)[C@H](CC(=O)O)NC(=O)[C@H](CO)NC(=O)[C@@H](NC(=O)[C@H](Cc1ccccc1)NC(=O)[C@@H](NC(=O)CNC(=O)[C@H](CCC(=O)O)NC(=O)[C@H](C)NC(=O)[C@@H](N)Cc1ccc(O)cc1)[C@@H](C)O)[C@@H](C)CC)C(=O)N[C@@H](C)C(=O)N[C@@H](CCSC)C(=O)N[C@@H](CC(=O)O)C(=O)N[C@@H](CCCCN)C(=O)N[C@H](C(=O)N[C@@H](Cc1c[nH]cn1)C(=O)N[C@@H](CCC(N)=O)C(=O)N[C@@H](CCC(N)=O)C(=O)N[C@@H](CC(=O)O)C(=O)N[C@@H](Cc1ccccc1)C(=O)N[C@H](C(=O)N[C@@H](CC(N)=O)C(=O)N[C@@H](Cc1c[nH]c2ccccc12)C(=O)N[C@@H](CC(C)C)C(=O)N[C@@H](CC(C)C)C(=O)N[C@@H](C)C(=O)N[C@@H](CCC(N)=O)C(=O)N[C@@H](CCCCN)C(=O)NCC(=O)N[C@@H](CCCCN)C(=O)N[C@@H](CCCCN)C(=O)N[C@@H](CC(N)=O)C(=O)N[C@@H](CC(=O)O)C(=O)N[C@@H](Cc1c[nH]c2ccccc12)C(=O)N[C@@H](CCCCN)C(=O)N[C@@H](Cc1c[nH]cn1)C(=O)N[C@@H](CC(N)=O)C(=O)N[C@H](C(=O)N[C@H](C(=O)N[C@@H](CCC(N)=O)C(=O)O)[C@@H](C)O)[C@@H](C)CC)C(C)C)[C@@H](C)CC [hGIP, reference compound]
EC50 (dog GIPR): 0.7 nM
EC50 (cynomolgous monkey GIPR): 0.69 nM

EC50 (human GLP-1R [6]; Table 7): 0.01 nM
EC50 (human GLP-1R [6]; Table 8): 0.03 nM
EC50 (human GIPR [10]; Table 8, read-out: EC50 GIPR): 0.01 nM
EC50 (human GIPR [10]; unnumbered table, run 02/19, read-out: EC50 GIPR 02/19): 0.04 nM
Compound: CC[C@H](C)[C@H](NC(=O)[C@H](CO)NC(=O)[C@H](Cc1ccc(O)cc1)NC(=O)[C@H](CC(=O)O)NC(=O)[C@H](CO)NC(=O)[C@@H](NC(=O)[C@H](Cc1ccccc1)NC(=O)[C@@H](NC(=O)CNC(=O)[C@H](CCC(=O)O)NC(=O)C(C)(C)NC(=O)[C@@H](N)Cc1ccc(O)cc1)[C@@H](C)O)[C@@H](C)O)C(=O)N[C@@H](Cc1ccc(O)cc1)C(=O)N[C@H]1CCCCNC(=O)CN(C(=O)CCNC(=O)CCOCCOCCOCCNC(=O)CCCCCCCCCCCCCCCCC(=O)O)CC(=O)NCCCC[C@@H](C(=O)N[C@@H](Cc2ccccc2)C(=O)N[C@H](C(=O)N[C@@H](CC(N)=O)C(=O)N[C@@H](Cc2c[nH]c3ccccc23)C(=O)N[C@@H](CC(C)C)C(=O)N[C@@H](CC(C)C)C(=O)N[C@@H](C)C(=O)NCC(=O)NCC(=O)N2CCC[C@H]2C(=O)N[C@@H](CO)C(=O)N[C@@H](CO)C(=O)NCC(=O)N[C@@H](C)C(=O)N2CCC[C@H]2C(=O)N2CCC[C@H]2C(=O)N2CCC[C@H]2C(=O)N[C@@H](CO)C(N)=O)C(C)C)NC(=O)C(C)(C)NC(=O)[C@H](C)NC(=O)[C@H](C)NC(=O)[C@H](CCC(N)=O)NC(=O)[C@H](CCCCN)NC(=O)[C@H](CC(=O)O)NC1=O [mCMD307, YAibEGT-FTSDY-SIYXD-KQAAAib-XFVNW-LLAGG-PSSGA-PPPS-NH2 (where each X is K) (SEQ ID NO: 39)]
remaining at 24 h (in vitro [4]): 87%
remaining at 24 h (in vitro [5]; dog): 92%
remaining at 24 h (in vitro [5]; human): 92%
remaining at 24 h [7]: 53%
fasted glucose levels [8]: significantly reduce fasted glucose levels
glucose handling (OGTT) versus vehicle [8]: more significant improvements in handling glucose
body weight, food intake ([9]; 40 μg/kg, FIG. 5A): significantly reduced body weight food intake
fed blood glucose ([9]; day 21, versus PBS, FIG. 5B): significantly lower than compared to PBS-treated DIO mice
body weight ([9]; s.c., FIG. 5A): steady reduction in body weight
fasting blood glucose levels ([9]; s.c., FIG. 5A): steady reduction
AUC0-last ([11]; Table 6, plasma, route not given): 59200 ± 6810 ng·h/mL
Tmax ([11]; Table 6, plasma, route not stated in table (s.c. 1 mg kg-1 / i.v. 0.3 mg kg-1 per FIG. 3)): 2.33 ± 1.16 h
Cmax ([11]; mouse, in vivo): 4710 ± 659 ng/mL
Vd ([11]; mouse, in vivo): 0.18 ± 0.05 L/kg
clearance ([11]; mouse, in vivo): 0.28 ± 0.04 mL/min/kg
half-life ([11]; mouse, in vivo): 11.6 ± 0.85 h

Reference: patent publication US12329823B2 (The Scripps Research Institute, priority 2021, dated 2025)
